Laboratory results published in US10392368B2, “Pyrazolo and triazolo bicyclic compounds as JAK kinase inhibitors” (THERAVANCE BIOPHARMA R&D IP, LLC, priority 2017, dated 2019).
Like-named read-outs stand apart in the source and are kept apart here.

Assays:
JAK1 = molecular target: T1, JAK1 (Homo sapiens, UniProt P23458); assay: Biochemical JAK1 kinase assay (LanthaScreen); settings: for Ki: read-out: JAK 1 (pKi) (converted)
T1 construct: GST; purchased Life Technologies
In short: (§1)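 GST-JAK + GFP-STAT1 peptide + cpd, 1 h preinc RT; ATP start, 1% DMSO, 1 h RT; stop 10 mM EDTA + 2 nM Tb-anti-pSTAT1; 1 h; TR-FRET 520/495. % inhib vs DMSO/background → IC50 (4-PL) → pKi (Cheng-Prusoff).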

JAK2 = molecular target: T2, JAK2 (Homo sapiens, UniProt O60674); assay: Biochemical JAK2 kinase assay (LanthaScreen); settings: for Ki: read-out: JAK 2 (pKi) (converted)
T2 construct: GST; purchased Life Technologies
In short: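 GST-tagged recombinant JAK2 pre-incubated 1 h at ambient temperature with compound and GFP-STAT1 peptide in HEPES pH 7.5/MgCl2 buffer, then ATP added for a 1 h reaction with 1% DMSO. TR-FRET read after EDTA and Tb-anti-pSTAT1 (pTyr701) addition; IC50 from 4-parameter fit, converted to pKi by Cheng-Prusoff.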

Tyk2 = molecular target: T3, Tyk2 (Homo sapiens, UniProt P29597); assay: Biochemical Tyk2 kinase assay (LanthaScreen); settings: for Ki: read-out: Tyk 2 (pKi) (converted)
T3 construct: GST; purchased Life Technologies
In short: as §1

[1] = system: IL-2 stimulated pSTAT5 in Tall-1 T cells; assay: Cellular JAK3 potency assay: inhibition of IL-2 stimulated pSTAT5 in Tall-1 T cells; type: cell-based, human; settings: for IC50: Homo sapiens, read-out: Tall-1 (pIC50) (converted)
In short: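 In human Tall-1 T cells, IL-2 (300 ng/ml final, 30 min) drives STAT5 phosphorylation after a 1 h compound pretreatment. Lysates are assayed for pSTAT5 by AlphaLisa, and IC50 derived from signal versus concentration is expressed as pIC50.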

JAK3 = molecular target: T4, JAK3 (Homo sapiens, UniProt P52333); assay: Biochemical JAK3 kinase assay (LanthaScreen); parameters: GST; purchased Life Technologies; settings: for Ki: read-out: JAK 3 (pKi) (converted)
T4 sequence (P52333 1-1124): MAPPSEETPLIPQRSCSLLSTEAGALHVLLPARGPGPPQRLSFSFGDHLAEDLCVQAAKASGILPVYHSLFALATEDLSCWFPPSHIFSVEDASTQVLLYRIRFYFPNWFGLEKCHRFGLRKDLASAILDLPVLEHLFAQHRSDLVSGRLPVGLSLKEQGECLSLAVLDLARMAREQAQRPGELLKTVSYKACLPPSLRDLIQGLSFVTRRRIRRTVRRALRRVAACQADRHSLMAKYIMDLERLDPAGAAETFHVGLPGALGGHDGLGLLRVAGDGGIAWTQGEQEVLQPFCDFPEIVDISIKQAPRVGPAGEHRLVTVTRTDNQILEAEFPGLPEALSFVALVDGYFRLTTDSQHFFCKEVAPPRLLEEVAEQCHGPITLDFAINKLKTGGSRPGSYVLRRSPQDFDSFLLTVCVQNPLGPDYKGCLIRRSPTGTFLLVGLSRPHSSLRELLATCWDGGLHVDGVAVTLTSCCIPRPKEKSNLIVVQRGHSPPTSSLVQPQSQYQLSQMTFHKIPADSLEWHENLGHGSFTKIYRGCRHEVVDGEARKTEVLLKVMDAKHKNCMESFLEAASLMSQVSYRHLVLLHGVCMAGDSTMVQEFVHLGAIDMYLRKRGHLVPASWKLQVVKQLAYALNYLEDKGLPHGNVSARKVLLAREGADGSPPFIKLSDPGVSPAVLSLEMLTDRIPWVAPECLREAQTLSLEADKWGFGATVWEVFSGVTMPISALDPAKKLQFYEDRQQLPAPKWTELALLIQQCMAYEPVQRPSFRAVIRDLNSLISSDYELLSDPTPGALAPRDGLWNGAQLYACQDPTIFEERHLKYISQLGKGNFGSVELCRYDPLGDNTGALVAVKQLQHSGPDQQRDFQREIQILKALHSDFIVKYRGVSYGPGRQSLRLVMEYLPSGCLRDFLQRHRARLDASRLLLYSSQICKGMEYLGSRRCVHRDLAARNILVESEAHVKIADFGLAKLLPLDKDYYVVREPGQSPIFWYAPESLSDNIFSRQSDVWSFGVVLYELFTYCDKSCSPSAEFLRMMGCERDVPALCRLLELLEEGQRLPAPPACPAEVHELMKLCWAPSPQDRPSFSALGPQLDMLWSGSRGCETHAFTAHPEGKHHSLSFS
In short: as §1

[2] = TALL-1, IL-2 stimulated pSTAT5, Tall-1 T cells
[3] = selectivity JAK3 over JAK1, difference of pKi
[4] = TALL-1, IL-2 stimulated pSTAT5 in Tall-1 T cells
[5] = selectivity: difference of pKi JAK3 and pKi JAK1
[6] = IL-2 stimulated pSTAT5, Tall-1 T cells
[7] = IL-2 stimulated pSTAT5 in Tall-1 T cells

T3 sequence (P29597 whole entry): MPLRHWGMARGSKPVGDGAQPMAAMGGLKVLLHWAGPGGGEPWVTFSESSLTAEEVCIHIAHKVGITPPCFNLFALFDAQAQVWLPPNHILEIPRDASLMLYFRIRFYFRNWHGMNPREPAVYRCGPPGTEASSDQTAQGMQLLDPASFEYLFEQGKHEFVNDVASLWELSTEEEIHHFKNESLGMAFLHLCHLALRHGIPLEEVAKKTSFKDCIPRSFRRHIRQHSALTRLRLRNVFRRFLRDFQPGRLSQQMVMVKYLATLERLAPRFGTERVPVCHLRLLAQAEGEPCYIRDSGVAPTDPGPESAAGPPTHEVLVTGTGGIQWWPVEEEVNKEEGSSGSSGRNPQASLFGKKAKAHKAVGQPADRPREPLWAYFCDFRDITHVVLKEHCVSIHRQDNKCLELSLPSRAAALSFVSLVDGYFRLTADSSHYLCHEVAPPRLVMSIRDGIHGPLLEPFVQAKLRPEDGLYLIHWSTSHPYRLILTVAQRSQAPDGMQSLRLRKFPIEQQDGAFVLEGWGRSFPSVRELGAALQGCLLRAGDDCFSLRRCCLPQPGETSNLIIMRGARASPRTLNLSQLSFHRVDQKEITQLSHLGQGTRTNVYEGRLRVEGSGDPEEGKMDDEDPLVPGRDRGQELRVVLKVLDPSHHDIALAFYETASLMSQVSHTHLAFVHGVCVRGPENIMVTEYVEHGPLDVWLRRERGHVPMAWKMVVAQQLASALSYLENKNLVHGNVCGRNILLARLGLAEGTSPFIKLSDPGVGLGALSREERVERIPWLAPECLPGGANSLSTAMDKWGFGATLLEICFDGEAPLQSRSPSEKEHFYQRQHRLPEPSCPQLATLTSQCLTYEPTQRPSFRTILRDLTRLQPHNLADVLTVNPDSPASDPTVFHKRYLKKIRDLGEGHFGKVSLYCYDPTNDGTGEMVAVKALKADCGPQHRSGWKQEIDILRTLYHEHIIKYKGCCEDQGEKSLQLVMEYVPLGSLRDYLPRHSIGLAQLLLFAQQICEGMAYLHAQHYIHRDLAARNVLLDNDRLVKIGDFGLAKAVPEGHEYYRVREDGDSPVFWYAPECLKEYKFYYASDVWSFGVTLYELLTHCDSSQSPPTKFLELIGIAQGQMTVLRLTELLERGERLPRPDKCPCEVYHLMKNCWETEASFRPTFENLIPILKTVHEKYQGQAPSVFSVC
T2 sequence (O60674 whole entry): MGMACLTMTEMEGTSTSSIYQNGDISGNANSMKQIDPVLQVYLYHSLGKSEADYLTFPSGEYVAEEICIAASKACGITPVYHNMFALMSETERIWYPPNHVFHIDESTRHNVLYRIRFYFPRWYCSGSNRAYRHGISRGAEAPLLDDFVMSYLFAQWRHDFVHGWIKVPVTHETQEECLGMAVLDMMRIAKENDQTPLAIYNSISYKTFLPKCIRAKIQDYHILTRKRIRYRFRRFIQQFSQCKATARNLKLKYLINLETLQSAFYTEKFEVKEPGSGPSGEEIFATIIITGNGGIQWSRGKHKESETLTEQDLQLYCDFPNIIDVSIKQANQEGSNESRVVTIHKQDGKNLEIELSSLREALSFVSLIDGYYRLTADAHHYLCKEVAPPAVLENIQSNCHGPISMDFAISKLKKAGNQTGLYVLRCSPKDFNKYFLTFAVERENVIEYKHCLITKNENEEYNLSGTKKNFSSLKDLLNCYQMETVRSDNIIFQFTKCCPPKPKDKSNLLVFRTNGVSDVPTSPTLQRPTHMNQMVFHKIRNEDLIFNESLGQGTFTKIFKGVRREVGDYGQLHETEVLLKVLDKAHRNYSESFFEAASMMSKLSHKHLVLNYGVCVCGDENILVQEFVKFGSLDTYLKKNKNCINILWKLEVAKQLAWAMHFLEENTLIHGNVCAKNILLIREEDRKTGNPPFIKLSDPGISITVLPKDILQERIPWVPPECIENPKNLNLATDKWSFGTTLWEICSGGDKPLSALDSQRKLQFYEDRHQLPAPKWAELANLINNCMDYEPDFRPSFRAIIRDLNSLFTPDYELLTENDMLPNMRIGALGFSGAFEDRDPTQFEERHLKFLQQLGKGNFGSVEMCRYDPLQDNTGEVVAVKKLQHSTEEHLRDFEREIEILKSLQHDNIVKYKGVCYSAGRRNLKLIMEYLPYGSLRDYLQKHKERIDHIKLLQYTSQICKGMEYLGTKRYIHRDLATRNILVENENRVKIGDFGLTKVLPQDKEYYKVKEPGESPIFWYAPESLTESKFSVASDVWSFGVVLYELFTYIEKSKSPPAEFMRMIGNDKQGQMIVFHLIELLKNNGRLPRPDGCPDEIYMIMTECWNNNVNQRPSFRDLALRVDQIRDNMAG
T1 sequence (P23458 whole entry): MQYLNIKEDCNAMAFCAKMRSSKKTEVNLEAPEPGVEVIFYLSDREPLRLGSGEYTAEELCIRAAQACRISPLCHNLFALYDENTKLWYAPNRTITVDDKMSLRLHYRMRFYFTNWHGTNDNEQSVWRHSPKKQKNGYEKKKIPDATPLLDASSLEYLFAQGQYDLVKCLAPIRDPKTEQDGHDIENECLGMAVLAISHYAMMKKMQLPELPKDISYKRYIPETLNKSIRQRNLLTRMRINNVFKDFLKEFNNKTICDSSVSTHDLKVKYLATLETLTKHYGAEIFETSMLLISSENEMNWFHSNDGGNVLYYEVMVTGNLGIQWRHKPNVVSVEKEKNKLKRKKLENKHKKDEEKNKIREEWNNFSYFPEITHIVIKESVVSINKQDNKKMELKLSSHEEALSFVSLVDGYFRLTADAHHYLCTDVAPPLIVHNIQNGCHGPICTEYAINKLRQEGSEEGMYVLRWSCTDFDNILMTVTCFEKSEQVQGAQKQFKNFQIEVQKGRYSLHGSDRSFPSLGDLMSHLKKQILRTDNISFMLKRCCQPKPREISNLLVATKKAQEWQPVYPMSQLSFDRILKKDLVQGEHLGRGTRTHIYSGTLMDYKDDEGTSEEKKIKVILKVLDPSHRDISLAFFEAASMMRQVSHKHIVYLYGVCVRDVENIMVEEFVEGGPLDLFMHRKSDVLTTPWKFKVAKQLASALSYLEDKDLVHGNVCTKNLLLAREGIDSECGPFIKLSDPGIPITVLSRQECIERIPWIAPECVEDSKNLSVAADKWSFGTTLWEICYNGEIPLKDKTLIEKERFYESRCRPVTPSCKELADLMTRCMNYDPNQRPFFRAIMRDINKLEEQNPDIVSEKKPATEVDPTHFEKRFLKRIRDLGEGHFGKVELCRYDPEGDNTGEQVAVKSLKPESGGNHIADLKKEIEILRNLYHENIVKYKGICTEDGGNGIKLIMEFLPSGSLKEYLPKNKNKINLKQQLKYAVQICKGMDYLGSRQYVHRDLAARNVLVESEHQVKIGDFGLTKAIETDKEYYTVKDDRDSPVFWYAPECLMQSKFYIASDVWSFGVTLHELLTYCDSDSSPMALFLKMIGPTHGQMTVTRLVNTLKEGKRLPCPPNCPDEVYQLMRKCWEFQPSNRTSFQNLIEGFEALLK

C=CC(=O)N1CC(C#N)(C(=O)Nc2cc(-c3ccc(O)cc3)cc3[nH]ncc23)C1 [Compound 12-47]
Ki (JAK1): > 100 nM
Ki (JAK2): > 100 nM
Ki (Tyk2): > 100 nM
IC50 [1, 2]: 31.6 to 200 nM
Ki (JAK3): 0.1 to 1 nM
JAK3 (pKi)-JAK1 (pKi) (JAK3; [3]): A (a value of 3 or above)

C=CC(=O)N1CC(C)(C(=O)Nc2cc(-c3ccc(O)cc3)cc3[nH]ncc23)C1 [Compound 12-68]
Ki (JAK1): > 100 nM
Ki (JAK2): > 100 nM
Ki (Tyk2): > 100 nM
IC50 [1, 2]: 200 to 1000 nM
Ki (JAK3): 0.1 to 1 nM
JAK3 (pKi)-JAK1 (pKi) (JAK3; [3]): A (a value of 3 or above)

C=CC(=O)N1CCC(Oc2cc(-c3ccc(O)cc3)cc3[nH]ncc23)CC1 [Compound 6-2]
Ki (JAK1): 10 to 100 nM
Ki (JAK2): 10 to 100 nM
Ki (Tyk2): > 100 nM
IC50 [1, 2]: < 31.6 nM
Ki (JAK3): < 0.1 nM
JAK3 (pKi)-JAK1 (pKi) (JAK3; [3]): B (a value of 2.3 to 3)

C=CC(=O)N1CC(F)(COc2cc(-c3ccc(O)c(F)c3)cc3[nH]ncc23)C1 [Compound 3-41]
Ki (JAK1): 0.1 to 1 nM
Ki (JAK2): 1 to 10 nM
Ki (Tyk2): > 100 nM
IC50 [1, 4]: < 31.6 nM
Ki (JAK3): 0.1 to 1 nM
JAK3 (pKi)-JAK1 (pKi) (JAK3; [5]): B (a value of 2.3 to 3)

C=CC(=O)N1CCO[C@@H](C(=O)Nc2cc(-c3ccc(O)c(Cl)c3)cc3[nH]ncc23)C1 [Compound 13-2]
JAK 1 (pKi) (JAK1): E (a pKi value of 7 or below (Ki of 100 nM or above))
JAK 2 (pKi) (JAK2): E (a pKi value of 7 or below (Ki of 100 nM or above))
Tyk 2 (pKi) (Tyk2): E (a pKi value of 7 or below (Ki of 100 nM or above))
Tall-1 (pIC50) [1, 6]: A (a pIC50 value≥7.5 (IC50≤32 nM))
JAK 3 (pKi) (JAK3): B (a pKi value between 9 and 10 (Ki between 1 nM and 0.1 nM))
JAK3 (pKi)-JAK1 (pKi) (JAK3; [3]): A (a value of 3 or above)

CN(C)C/C=C/C(=O)N1CCC(Oc2cc(-c3ccc(O)c(F)c3)cc3[nH]ncc23)CC1 [Compound 6-20]
Ki (JAK1): 10 to 100 nM
Ki (JAK2): 1 to 10 nM
Ki (Tyk2): > 100 nM
IC50 [1, 2]: 31.6 to 200 nM
Ki (JAK3): 0.1 to 1 nM
JAK3 (pKi)-JAK1 (pKi) (JAK3; [3]): B (a value of 2.3 to 3)

CN(C)C/C=C/C(=O)N1CC(OCc2nc(-c3ccc(O)cc3)cc3[nH]ncc23)C1 [Compound 16-6]
JAK 1 (pKi) (JAK1): E (a pKi value of 7 or below (Ki of 100 nM or above))
JAK 2 (pKi) (JAK2): E (a pKi value of 7 or below (Ki of 100 nM or above))
Tyk 2 (pKi) (Tyk2): E (a pKi value of 7 or below (Ki of 100 nM or above))
Tall-1 (pIC50) [1, 6]: C (a pIC50 value between 6 and 6.7 (IC50 between 1 μM and 200 nM))
JAK 3 (pKi) (JAK3): B (a pKi value between 9 and 10 (Ki between 1 nM and 0.1 nM))
JAK3 (pKi)-JAK1 (pKi) (JAK3; [3]): A (a value of 3 or above)

CN(C)C/C=C/C(=O)N1CC(C#N)(COc2nc(-c3ccc(O)c(F)c3)cc3[nH]ncc23)C1 [Compound 3-106]
JAK 1 (pKi) (JAK1): E (a pKi value of 7 or below (Ki of 100 nM or above))
JAK 2 (pKi) (JAK2): E (a pKi value of 7 or below (Ki of 100 nM or above))
Tyk 2 (pKi) (Tyk2): E (a pKi value of 7 or below (Ki of 100 nM or above))
Tall-1 (pIC50) [1, 7]: B (a pIC50 value between 6.7 (included) and 7.5 (IC50 between 200 nM and 32 nM))
JAK 3 (pKi) (JAK3): B (a pKi value between 9 and 10 (Ki between 1 nM and 0.1 nM))
JAK3 (pKi)-JAK1 (pKi) (JAK3; [5]): A (a value of 3 or above)

C=CC(=O)N1CCC[C@@H](C(=O)Nc2cc(-c3ccc(O)cc3)cc3[nH]ncc23)[C@H]1C [Compound 12-57]
Ki (JAK1): > 100 nM
Ki (JAK2): 10 to 100 nM
Ki (Tyk2): > 100 nM
IC50 [1, 2]: 31.6 to 200 nM
Ki (JAK3): 0.1 to 1 nM
JAK3 (pKi)-JAK1 (pKi) (JAK3; [3]): A (a value of 3 or above)

C=CC(=O)N1CCC(Oc2cc(-c3ccc(O)c(Cl)c3)cc3[nH]ncc23)CC1 [Compound 6-13]
JAK 1 (pKi) (JAK1): E (a pKi value of 7 or below (Ki of 100 nM or above))
JAK 2 (pKi) (JAK2): D (a pKi value between 7 and 8 (Ki between 100 nM and 10 nM))
Tyk 2 (pKi) (Tyk2): E (a pKi value of 7 or below (Ki of 100 nM or above))
Tall-1 (pIC50) [1, 6]: A (a pIC50 value≥7.5 (IC50≤32 nM))
JAK 3 (pKi) (JAK3): B (a pKi value between 9 and 10 (Ki between 1 nM and 0.1 nM))
JAK3 (pKi)-JAK1 (pKi) (JAK3; [3]): B (a value of 2.3 to 3)

CN(C)C/C=C/C(=O)N1CC(F)(COc2nc(-c3ccc(O)c(F)c3)nc3[nH]ncc23)C1 [Compound 3-51]
JAK 1 (pKi) (JAK1): E (a pKi value of 7 or below (Ki of 100 nM or above))
JAK 2 (pKi) (JAK2): E (a pKi value of 7 or below (Ki of 100 nM or above))
Tyk 2 (pKi) (Tyk2): E (a pKi value of 7 or below (Ki of 100 nM or above))
Tall-1 (pIC50) [1, 7]: C (a pIC50 value between 6 and 6.7 (IC50 between 1 μM and 200 nM))
JAK 3 (pKi) (JAK3): B (a pKi value between 9 and 10 (Ki between 1 nM and 0.1 nM))
JAK3 (pKi)-JAK1 (pKi) (JAK3; [5]): A (a value of 3 or above)

CN(C)C/C=C/C(=O)N1CC(COc2cc(-c3ccc(O)cc3)cc3[nH]nc(C(F)(F)F)c23)C1 [Compound 18-12]
Ki (JAK1): 10 to 100 nM
Ki (JAK2): 10 to 100 nM
Ki (Tyk2): > 100 nM
IC50 [1, 2]: 31.6 to 200 nM
Ki (JAK3): 0.1 to 1 nM
JAK3 (pKi)-JAK1 (pKi) (JAK3; [3]): B (a value of 2.3 to 3)

C=CC(=O)N1CCC(C#N)(C(=O)Nc2cc(-c3ccc(O)cc3)cc3[nH]ncc23)CC1 [Compound 12-41]
Ki (JAK1): > 100 nM
Ki (JAK2): > 100 nM
Ki (Tyk2): > 100 nM
IC50 [1, 2]: < 31.6 nM
Ki (JAK3): 0.1 to 1 nM
JAK3 (pKi)-JAK1 (pKi) (JAK3; [3]): A (a value of 3 or above)

C=CC(=O)N1CC(CC)(COc2nc(-c3ccc(O)c(F)c3)nc3[nH]ncc23)C1 [Compound 3-67]
Ki (JAK1): > 100 nM
Ki (JAK2): > 100 nM
Ki (Tyk2): > 100 nM
IC50 [1, 4]: 31.6 to 200 nM
Ki (JAK3): 0.1 to 1 nM
JAK3 (pKi)-JAK1 (pKi) (JAK3; [5]): A (a value of 3 or above)

C=CC(=O)N1CC[C@H](Oc2cc(-c3ccc(O)cc3)cc3[nH]nc(Cl)c23)C1 [Compound 1-47]
JAK 1 (pKi) (JAK1): E (a pKi value of 7 or below (Ki of 100 nM or above))
JAK 2 (pKi) (JAK2): E (a pKi value of 7 or below (Ki of 100 nM or above))
Tyk 2 (pKi) (Tyk2): E (a pKi value of 7 or below (Ki of 100 nM or above))
Tall-1 (pIC50) [1, 7]: B (a pIC50 value between 6.7 (included) and 7.5 (IC50 between 200 nM and 32 nM))
JAK 3 (pKi) (JAK3): B (a pKi value between 9 and 10 (Ki between 1 nM and 0.1 nM))
JAK3 (pKi)-JAK1 (pKi) (JAK3; [5]): B (a value of 2.3 to 3)
